Experimental data published in PubChem BioAssay AID1745844 (Carcinogenic Potency Database (CPDB), 2022).
Active and inactive are the calls of the source. No rule for the calls is given here.

Tested on: rodent lifetime carcinogenesis bioassay, tumor incidence TD50
Assay: chronic cancer bioassays in animals – CPDB, compiled studies (AID 1745844)

Cc1cc(C)nc(-c2ccc([N+](=O)[O-])o2)n1
carcinogen call (rat, strain Sprague-Dawley, females, in feed, site: forestomach, lesion: squamous-cell carcinoma, dosed 42 weeks, study length 59 weeks): positive
TD50 (rat, strain Sprague-Dawley, females, in feed, site: intestine, lesion: hemangioendothelial sarcoma, dosed 42 weeks, study length 59 weeks): 3.43 mg/kg/day
TD50 (rat, strain Sprague-Dawley, females, in feed, site: intestine, lesion: sarcoma, dosed 42 weeks, study length 59 weeks): 2.61 mg/kg/day
TD50 (rat, strain Sprague-Dawley, females, in feed, site: kidney, lesion: transitional-cell carcinoma, dosed 42 weeks, study length 59 weeks): 45.5 mg/kg/day
TD50 (rat, strain Sprague-Dawley, females, in feed, site: mammary gland, lesion: adenocarcinoma, dosed 42 weeks, study length 59 weeks): 6.45 mg/kg/day

ClC=CCCl
TD50 (mouse, strain B6C3F1, females, by gavage, site: any site (literature study), lesion: several types, types named in the paper, dosed 104 weeks, study length 106 weeks): 34.9 mg/kg/day
TD50 (mouse, strain B6C3F1, females, by gavage, site: liver, lesion: hepatocellular adenoma + hepatocellular carcinoma + neoplastic nodule, dosed 104 weeks, study length 106 weeks): 89.3 mg/kg/day
TD50 (mouse, strain B6C3F1, females, by gavage, site: liver, lesion: hepatocellular adenoma + hepatocellular carcinoma, dosed 104 weeks, study length 106 weeks): 89.3 mg/kg/day
TD50 (mouse, strain B6C3F1, females, by gavage, site: liver, lesion: hepatocellular adenoma, dosed 104 weeks, study length 106 weeks): 215 mg/kg/day
TD50 (mouse, strain B6C3F1, females, by gavage, site: lung + stomach + urinary bladder, lesion: alveolar/bronchiolar adenoma + squamous-cell carcinoma + squamous-cell papilloma + transitional-cell carcinoma, dosed 104 weeks, study length 106 weeks): 36.3 mg/kg/day
TD50 (mouse, strain B6C3F1, females, by gavage, site: lung, lesion: alveolar/bronchiolar adenoma + alveolar/bronchiolar carcinoma, dosed 104 weeks, study length 106 weeks): 182 mg/kg/day
TD50 (mouse, strain B6C3F1, females, by gavage, site: lung, lesion: alveolar/bronchiolar adenoma, dosed 104 weeks, study length 106 weeks): 149 mg/kg/day
TD50 (mouse, strain B6C3F1, females, by gavage, site: stomach, lesion: squamous-cell carcinoma + squamous-cell papilloma, dosed 104 weeks, study length 106 weeks): 344 mg/kg/day
TD50 (mouse, strain B6C3F1, females, by gavage, site: urinary bladder, lesion: transitional-cell carcinoma, dosed 104 weeks, study length 106 weeks): 49.6 mg/kg/day
carcinogen call (mouse, strain B6C3F1, females, in feed, site: liver, lesion: hepatocellular adenoma, dosed 104 weeks, study length 104 weeks): negative (inactive)
carcinogen call (mouse, strain B6C3F1, females, in feed, site: liver, lesion: hepatocellular carcinoma, dosed 104 weeks, study length 104 weeks): negative (inactive)
carcinogen call (mouse, strain B6C3F1, females, in feed, site: lung, lesion: alveolar/bronchiolar adenoma, dosed 104 weeks, study length 104 weeks): negative (inactive)
carcinogen call (mouse, strain B6C3F1, females, in feed, site: lung, lesion: alveolar/bronchiolar carcinoma, dosed 104 weeks, study length 104 weeks): negative (inactive)
carcinogen call (mouse, strain B6C3F1, females, in feed, site: stomach, lesion: one or several types, types not named, dosed 52 weeks, study length 52 weeks): negative (inactive)
carcinogen call (mouse, strain B6C3F1, females, inhaled, site: any site (literature study), lesion: several types, types named in the paper, dosed 104 weeks, study length 104 weeks): negative (inactive)
TD50 (mouse, strain B6C3F1, females, inhaled, site: liver, lesion: several types, types named in the paper, dosed 104 weeks, study length 104 weeks): 1810 mg/kg/day (inactive)
carcinogen call (mouse, strain B6C3F1, females, inhaled, site: lung, lesion: alveolar/bronchiolar adenoma, dosed 104 weeks, study length 104 weeks): negative (inactive)
carcinogen call (mouse, strain B6C3F1, females, inhaled, site: lung, lesion: one or several types, types not named, dosed 52 weeks, study length 52 weeks): negative (inactive)
carcinogen call (mouse, strain B6C3F1, females, inhaled, site: mesenteric lymph node, lesion: lymphosarcoma, dosed 104 weeks, study length 104 weeks): negative (inactive)
TD50 (mouse, strain B6C3F1, females, inhaled, site: pituitary gland, lesion: adenoma, dosed 104 weeks, study length 104 weeks): 19 mg/kg/day (inactive)
TD50 (mouse, strain B6C3F1, males, by gavage, site: any site (literature study), lesion: several types, types named in the paper, dosed 104 weeks, study length 105 weeks): 309 mg/kg/day
TD50 (mouse, strain B6C3F1, males, by gavage, site: liver, lesion: hepatocellular adenoma + hepatocellular carcinoma + neoplastic nodule, dosed 104 weeks, study length 105 weeks): 1930 mg/kg/day
TD50 (mouse, strain B6C3F1, males, by gavage, site: lung, lesion: alveolar/bronchiolar adenoma + alveolar/bronchiolar carcinoma, dosed 104 weeks, study length 105 weeks): 127 mg/kg/day
TD50 (mouse, strain B6C3F1, males, in feed, site: liver, lesion: hepatocellular adenoma, dosed 104 weeks, study length 104 weeks): 78.2 mg/kg/day (inactive)
carcinogen call (mouse, strain B6C3F1, males, in feed, site: liver, lesion: hepatocellular carcinoma, dosed 104 weeks, study length 104 weeks): negative (inactive)
TD50 (mouse, strain B6C3F1, males, in feed, site: lung, lesion: alveolar/bronchiolar adenoma, dosed 104 weeks, study length 104 weeks): 368 mg/kg/day (inactive)
carcinogen call (mouse, strain B6C3F1, males, in feed, site: lung, lesion: alveolar/bronchiolar carcinoma, dosed 104 weeks, study length 104 weeks): negative (inactive)
carcinogen call (mouse, strain B6C3F1, males, in feed, site: stomach, lesion: one or several types, types not named, dosed 52 weeks, study length 52 weeks): negative (inactive)
TD50 (mouse, strain B6C3F1, males, inhaled, site: any site (literature study), lesion: several types, types named in the paper, dosed 104 weeks, study length 104 weeks): 229 mg/kg/day
TD50 (mouse, strain B6C3F1, males, inhaled, site: lacrimal gland, lesion: cystadenoma, dosed 104 weeks, study length 104 weeks): 82.2 mg/kg/day
TD50 (mouse, strain B6C3F1, males, inhaled, site: lung, lesion: alveolar/bronchiolar adenoma, dosed 104 weeks, study length 104 weeks): 118 mg/kg/day
carcinogen call (mouse, strain B6C3F1, males, inhaled, site: lung, lesion: one or several types, types not named, dosed 52 weeks, study length 52 weeks): negative (inactive)
TD50 (rat, strain Fischer 344, females, by gavage, site: liver, lesion: hepatocellular adenoma + hepatocellular carcinoma + neoplastic nodule, dosed 104 weeks, study length 106 weeks): 168 mg/kg/day
TD50 (rat, strain Fischer 344, females, by gavage, site: stomach, lesion: squamous-cell papilloma, dosed 104 weeks, study length 106 weeks): 176 mg/kg/day
TD50 (rat, strain Fischer 344, females, by gavage, site: thyroid gland, lesion: follicular-cell adenoma + follicular-cell carcinoma, dosed 104 weeks, study length 106 weeks): 137 mg/kg/day
TD50 (rat, strain Fischer 344, females, in feed, site: liver, lesion: hepatocellular adenoma, dosed 104 weeks, study length 104 weeks): 334 mg/kg/day
carcinogen call (rat, strain Fischer 344, females, in feed, site: stomach, lesion: one or several types, types not named, dosed 52 weeks, study length 52 weeks): negative (inactive)
TD50 (rat, strain Fischer 344, females, in feed, site: uterus, lesion: endometrial stromal polyp, dosed 104 weeks, study length 104 weeks): 61.4 mg/kg/day
carcinogen call (rat, strain Fischer 344, females, inhaled, site: any site (literature study), lesion: one or several types, types not named, dosed 52 weeks, study length 52 weeks): negative (inactive)
carcinogen call (rat, strain Fischer 344, females, inhaled, site: any site (literature study), lesion: several types, types named in the paper, dosed 105 weeks, study length 105 weeks): negative (inactive)
TD50 (rat, strain Fischer 344, females, inhaled, site: liver, lesion: hepatocellular adenoma, dosed 105 weeks, study length 105 weeks): 1590 mg/kg/day (inactive)
TD50 (rat, strain Fischer 344, males, by gavage, site: forestomach + liver + stomach, lesion: squamous-cell papilloma + neoplastic nodule + squamous-cell carcinoma, dosed 104 weeks, study length 106 weeks): 33.2 mg/kg/day
TD50 (rat, strain Fischer 344, males, by gavage, site: forestomach + stomach, lesion: squamous-cell papilloma + squamous-cell carcinoma, dosed 104 weeks, study length 106 weeks): 64.1 mg/kg/day
TD50 (rat, strain Fischer 344, males, by gavage, site: forestomach + stomach, lesion: squamous-cell papilloma, dosed 104 weeks, study length 106 weeks): 97 mg/kg/day
TD50 (rat, strain Fischer 344, males, by gavage, site: liver, lesion: hepatocellular adenoma + hepatocellular carcinoma + neoplastic nodule, dosed 104 weeks, study length 106 weeks): 68 mg/kg/day
TD50 (rat, strain Fischer 344, males, by gavage, site: liver, lesion: hepatocellular carcinoma + neoplastic nodule, dosed 104 weeks, study length 106 weeks): 68 mg/kg/day
TD50 (rat, strain Fischer 344, males, by gavage, site: liver, lesion: neoplastic nodule, dosed 104 weeks, study length 106 weeks): 76 mg/kg/day
TD50 (rat, strain Fischer 344, males, by gavage, site: stomach, lesion: squamous-cell carcinoma, dosed 104 weeks, study length 106 weeks): 213 mg/kg/day
TD50 (rat, strain Fischer 344, males, in feed, site: liver, lesion: hepatocellular adenoma, dosed 104 weeks, study length 104 weeks): 100 mg/kg/day
TD50 (rat, strain Fischer 344, males, in feed, site: liver, lesion: hepatocellular carcinoma, dosed 104 weeks, study length 104 weeks): 1360 mg/kg/day
carcinogen call (rat, strain Fischer 344, males, in feed, site: stomach, lesion: one or several types, types not named, dosed 52 weeks, study length 52 weeks): negative (inactive)
carcinogen call (rat, strain Fischer 344, males, inhaled, site: any site (literature study), lesion: one or several types, types not named, dosed 52 weeks, study length 52 weeks): negative (inactive)
carcinogen call (rat, strain Fischer 344, males, inhaled, site: any site (literature study), lesion: several types, types named in the paper, dosed 105 weeks, study length 105 weeks): negative (inactive)
carcinogen call (rat, strain Fischer 344, males, inhaled, site: liver, lesion: hepatocellular adenoma, dosed 105 weeks, study length 105 weeks): negative (inactive)

Cn1nc(CO)nc1NCCCOc1cccc(CN2CCCCC2)c1
TD50 (rat, strain Charles River CD (Sprague-Dawley), females, in feed, site: stomach, glandular, fundic region, lesion: carcinoid tumor, malignant, dosed 115 weeks, study length 115 weeks): 272 mg/kg/day
TD50 (rat, strain Charles River CD (Sprague-Dawley), males, in feed, site: stomach, glandular, fundic region, lesion: carcinoid tumor, malignant, dosed 115 weeks, study length 115 weeks): 2010 mg/kg/day
